According to patent US12156893B2, “Oral composition comprising lactic acid bacteria for regulating immune responses and methods related thereto” (The Regents of the University of California, priority 2016, dated 2024):

How the values were obtained:
Type in all cases: cell-based, human
[1] = test system: OSCSCs; test: Chemotherapy-induced cell death of NK-differentiated OSCSCs; settings: OSCSCs differentiated with NK supernatants
[2] = test system: MP2 tumors; test: Chemotherapy-induced cell death of MP2 tumors; settings: for Cell death of NK-differentiated MP2: MP2 differentiated with NK-supernatants
[3] = test system: PL12 or Capan; test: NAC-induced cell death of well-differentiated pancreatic tumors; settings: NAC added to well-differentiated PL12 or Capan

Compound | Cell death of NK-differentiated OSCSCs [1] | Cell death of NK-differentiated MP2 [2] | Cell death ([2]; NAC added to poorly-differentiated MP2) | Cell death [3]
CC(=O)O[C@H]1C(=O)[C@@]2(C)[C@H]([C@H](OC(=O)c3ccccc3)[C@]3(O)C[C@H](OC(=O)[C@H](O)[C@@H](NC(=O)c4ccccc4)c4ccccc4)C(C)=C1C3(C)C)[C@]1(OC(C)=O)CO[C@@H]1C[C@@H]2O [Paclitaxel] | higher cell death | significant susceptibility | – | –
[NH2][Pt]([NH2])([Cl])[Cl] [CDDP, Cisplatin] | significant susceptibility | significant susceptibility | – | –
CC(=O)N[C@@H](CS)C(=O)O [NAC, N-acetylcysteine] | significantly increased Paclitaxel-mediated cell death | – | lower/slight effect on cell death | greater levels of cell death
